Measurements reported in US11427548B2 (Arvinas Operations, Inc., priority 2015, dated 2022).
Like-named read-outs stand apart in the source and are kept apart here.

Target: T1, Androgen Receptor (Homo sapiens, UniProt P10275)
T1 construct: endogenous in cells; host or cells: VCaP cells
T1 sequence (P10275 1-920): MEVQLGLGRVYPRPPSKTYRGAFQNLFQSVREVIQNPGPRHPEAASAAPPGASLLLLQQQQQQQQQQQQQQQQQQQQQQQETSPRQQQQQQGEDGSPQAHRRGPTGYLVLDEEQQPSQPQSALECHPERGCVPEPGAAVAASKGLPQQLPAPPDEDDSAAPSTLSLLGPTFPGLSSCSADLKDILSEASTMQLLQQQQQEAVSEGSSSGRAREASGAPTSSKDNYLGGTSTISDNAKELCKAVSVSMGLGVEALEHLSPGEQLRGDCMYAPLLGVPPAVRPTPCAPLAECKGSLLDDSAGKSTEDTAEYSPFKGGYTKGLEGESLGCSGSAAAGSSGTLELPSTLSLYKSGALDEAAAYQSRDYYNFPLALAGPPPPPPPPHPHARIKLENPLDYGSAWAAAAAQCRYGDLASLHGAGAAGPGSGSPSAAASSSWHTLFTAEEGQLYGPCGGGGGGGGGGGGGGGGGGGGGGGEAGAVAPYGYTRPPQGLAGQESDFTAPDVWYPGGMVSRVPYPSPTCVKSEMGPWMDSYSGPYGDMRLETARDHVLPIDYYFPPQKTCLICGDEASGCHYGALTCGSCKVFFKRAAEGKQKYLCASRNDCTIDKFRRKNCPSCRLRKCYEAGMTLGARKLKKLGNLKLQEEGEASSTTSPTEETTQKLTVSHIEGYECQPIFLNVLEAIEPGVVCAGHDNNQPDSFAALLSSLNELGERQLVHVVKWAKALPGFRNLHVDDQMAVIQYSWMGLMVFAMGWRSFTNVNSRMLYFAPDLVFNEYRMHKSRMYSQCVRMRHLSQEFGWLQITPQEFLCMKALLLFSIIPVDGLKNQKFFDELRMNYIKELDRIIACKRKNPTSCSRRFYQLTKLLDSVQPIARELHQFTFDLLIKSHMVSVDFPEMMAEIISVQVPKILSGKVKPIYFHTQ
Test: Androgen Receptor ELISA assay (PathScan AR ELISA) in VCaP cells: AR degradation, Dmax and DC50
Type: cell-based
Summary of the method: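 VCaP cells, 30,000/well, grown ≥3 days in phenol red-free RPMI with 5% charcoal-stripped FBS; compound added in 0.1% DMSO with 0.1 nM R1881, 7 half-log doses, 24 h. Lysate AR quantified by PathScan sandwich ELISA, HRP/TMB read at 450 nm, giving DC50 and Dmax.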

[1] = VCaP cells; Table 36; read-out: VCaP DC50
[2] = VCaP, VCaP cells; Table 36; read-out: VCaP Dmax (%)
[3] = VCaP cells; Table 35; read-out: VCaP DC50
[4] = read-out: VCaP DC50; VCaP cells; Table 35

Cc1ncsc1-c1ccc(C(CO)NC(=O)[C@@H]2CC(O)CN2C(=O)[C@@H](NC(=O)CN2CCN(CCN3CCN(c4ccc(C(=O)NC5C(C)(C)C(Oc6ccc(C#N)c(Cl)c6)C5(C)C)cn4)CC3)CC2)C(C)(C)C)cc1 (stereo partly drawn) [Example 834, N-((1r,3r)-3-(3-chloro-4-cyanophenoxy)-2,2,4,4-tetramethylcyclobutyl)-6-(4-(2-(4-(2-(((S)-1-((2S,4R)-4-hydroxy-2-(((R)-2-hydroxy-1-(4-(4-methylthiazol-5-yl)phenyl)ethyl)carbamoyl)pyrrolidin-1-yl)-3,3-dimethyl-1-oxobutan-2-yl)amino)-2-oxoethyl)piperazin-1-yl)ethyl)piperazin-1-yl)nicotinamide]
DC50 [1]: < 50 nM
Dmax [2]: > 71%

Cc1ncsc1-c1ccc([C@H](C)NC(=O)[C@@H]2C[C@@H](O)CN2C(=O)[C@@H](NC(=O)COCCc2cn(-c3ccc(C(=O)N[C@H]4C(C)(C)[C@H](Oc5ccc(C#N)c(C(F)(F)F)c5)C4(C)C)cc3)nn2)C(C)(C)C)cc1 [Example 719, (2S,4R)-1-((S)-2-(2-(2-(1-(4-(((1r,3r)-3-(4-cyano-3-(trifluoromethyl)phenoxy)-2,2,4,4-tetramethylcyclobutyl)carbamoyl)phenyl)-1H-1,2,3-triazol-4-yl)ethoxy)acetamido)-3,3-dimethylbutanoyl)-4-hydroxy-N-((S)-1-(4-(4-methylthiazol-5-yl)phenyl)ethyl)pyrrolidine-2-carboxamide]
DC50 [1]: < 50 nM
Dmax (VCaP, read-out: VCaP Dmax (%), VCaP cells; Table 36): > 71%

CC(C)(C)[C@H](NC(=O)COCCCCCNc1ccc(C(=O)N[C@H]2C(C)(C)[C@H](Oc3ccc(C#N)c(Cl)c3)C2(C)C)cc1)C(=O)N1C[C@H](O)C[C@H]1C(=O)NCc1ccc(-n2cnnn2)cc1 [Example 505]
DC50 [3]: < 50 nM
Dmax (VCaP, VCaP cells; Table 35; read-out: VCaP Dmax (%)): 26 to 50%

Cc1ncsc1-c1ccc([C@H](C)NC(=O)[C@@H]2C[C@@H](O)CN2C(=O)[C@@H](NC(=O)CN2CCN(CC3(Cc4ccc(C(=O)N[C@H]5C(C)(C)[C@H](Oc6ccc(C#N)c(C(F)(F)F)c6)C5(C)C)cc4)COC3)CC2)C(C)(C)C)cc1 [Example 741, (2S,4R)-1-((S)-2-(2-(4-((3-(4-(((1r,3r)-3-(4-cyano-3-(trifluoromethyl)phenoxy)-2,2,4,4-tetramethylcyclobutyl)carbamoyl)benzyl)oxetan-3-yl)methyl)piperazin-1-yl)acetamido)-3,3-dimethylbutanoyl)-4-hydroxy-N-((S)-1-(4-(4-methylthiazol-5-yl)phenyl)ethyl)pyrrolidine-2-carboxamide]
DC50 [1]: < 50 nM
Dmax (VCaP, read-out: VCaP Dmax (%)): 51 to 70%

Cc1n[nH]cc1-c1ccc(CNC(=O)[C@@H]2C[C@@H](O)CN2C(=O)[C@@H](NC(=O)COCCCOCCCCOc2ccc(N3C(=S)N(c4ccc(C#N)c(C(F)(F)F)c4)C(=O)C3(C)C)cc2)C(C)(C)C)cc1 [Example 377]
Dmax (VCaP, read-out: VCaP Dmax (%)): 51 to 70%
DC50 (read-out: VCaP DC50; VCaP cells; Table 34): 51 to 500 nM

Cc1ncsc1-c1ccc([C@H](C)NC(=O)[C@@H]2C[C@@H](O)CN2C(=O)[C@H](c2cc(CCCN3CCN(c4ccc(C(=O)N[C@H]5C(C)(C)[C@H](Oc6ccc(C#N)c(Cl)c6)C5(C)C)cn4)CC3)no2)C(C)C)cc1 [Example 818, N-((1r,3r)-3-(3-chloro-4-cyanophenoxy)-2,2,4,4-tetramethylcyclobutyl)-6-(4-(3-(5-((S)-1-((2S, 4R)-4-hydroxy-2-(((S)-1-(4-(4-methylthiazol-5-yl)phenyl)ethyl)carbamoyl)pyrrolidin-1-yl)-3-methyl-1-oxobutan-2-yl)isoxazol-3-yl)propyl)piperazin-1-yl) nicotinamide]
DC50 [1]: > 501 nM
Dmax [2]: < 25%

CC(C)(C)[C@H](NC(=O)COCCCCCNc1ccc(C(=O)N[C@H]2C(C)(C)[C@H](Oc3ccc(C#N)c(Cl)c3)C2(C)C)cc1)C(=O)N1C[C@H](O)C[C@H]1C(=O)NCc1ccc(-c2nnn[nH]2)cc1 [Example 518]
DC50 [3]: > 501 nM
Dmax (VCaP, read-out: VCaP Dmax (%), VCaP cells; Table 35): < 25%

Cc1ncsc1-c1ccc([C@H](C)NC(=O)[C@@H]2C[C@@H](O)CN2C(=O)[C@H](C(C)C)n2cc(OCCCOCCCCCOc3ccc(N4C(=S)N(c5ccc(C#N)c(C(F)(F)F)c5)C(=O)C4(C)C)cc3)cn2)nc1 [Example 428]
Dmax (VCaP, read-out: VCaP Dmax (%)): < 25%
DC50 [4]: > 501 nM

Cc1ncsc1-c1ccc([C@H](C)NC(=O)[C@@H]2C[C@@H](O)CN2C(=O)[C@@H](C(C)C)n2cc(Oc3ccc(OC4CCC(Oc5ccc(N6C(=S)N(c7ccc(C#N)c(C(F)(F)F)c7)C(=O)C6(C)C)cc5)CC4)nc3)cn2)cc1 (stereo partly drawn) [Example 628, (2S,4R)-1-((R)-2-(4-((6-((4-(4-(3-(4-cyano-3-(trifluoromethyl)phenyl)-5,5-dimethyl-4-oxo-2-thioxoimidazolidin-1-yl)phenoxy)cyclohexyl)oxy)pyridin-3-yl)oxy)-1H-pyrazol-1-yl)-3-methylbutanoyl)-4-hydroxy-N-((S)-1-(4-(4-methylthiazol-5-yl)phenyl)ethyl)pyrrolidine-2-carboxamide]
Dmax (VCaP, read-out: VCaP Dmax (%)): 26 to 50%
DC50 (read-out: VCaP DC50; VCaP cells; Table 36): > 501 nM

Cc1ncsc1-c1ccc(CNC(=O)[C@@H]2C[C@@H](O)CN2C(=O)[C@@H](NC(=O)COCCCCCOc2ccc(C(=O)N[C@H]3C(C)(C)[C@H](Oc4ccc(C#N)c(C(F)(F)F)c4)C3(C)C)cc2)C(C)(C)C)cc1 [Example 155, (2S,4R)-1-[(2S)-3,3-dimethyl-2-(2-{[5-(4-{[trans-3-[4-cyano-3-(trifluoromethyl)phenoxy]-2,2,4,4-tetramethylcyclobutyl]carbamoyl}phen-oxy)pentyl]oxy}acetamido)butanoyl]-4-hydroxy-N-{[4-(4-methyl-1,3-thiazol-5-yl)phenyl]methyl}pyrrolidine-2-carboxamide]
Dmax (VCaP, highest percentage of Androgen Receptor degradation observed, VCaP cells (Table 32); read-out: VCaP Dmax (%)): > 71%
DC50 (concentration that caused 50% Androgen Receptor degradation, VCaP cells (Table 32); read-out: VCaP DC50): < 50 nM

Cc1ncsc1-c1ccc([C@H](C)NC(=O)C2C[C@@H](O)CN2C(=O)C(NC(=O)COC(C)(C)CN2CCN(c3ccc(C(=O)NC4C(C)(C)C(Oc5ccc(C#N)c(Cl)c5)C4(C)C)cn3)CC2)C(C)(C)C)cc1 (stereo partly drawn) [Example 815, N-((1r,3r)-3-(3-chloro-4-cyanophenoxy)-2,2,4,4-tetramethylcyclobutyl)-6-(4-(2-(2-(((S)-1-((2S, 4R)-4-hydroxy-2-(((S)-1-(4-(4-methylthiazol-5-yl)phenyl)ethyl)carbamoyl)pyrrolidin-1-yl)-3,3-dimethyl-1-oxobutan-2-yl)amino)-2-oxoethoxy)-2-methylpropyl)piperazin-1-yl) nicotinamide]
DC50 [1]: < 50 nM
Dmax [2]: 51 to 70%

Cc1ncsc1-c1ccc(CNC(=O)[C@@H]2C[C@@H](O)CN2C(=O)[C@@H](NC(=O)COCCCOCCCCOc2ccc(N3C(=S)N(c4ccc(C#N)c(C(F)(F)F)c4)C(=O)C34CCN(C)CC4)cc2)C(C)(C)C)cc1 [Example 51, (2S,4R)-1-[(2S)-2-(2-{3-[4-(4-{3-[4-cyano-3-(trifluoromethyl)phenyl]-8-methyl-4-oxo-2-sulfanylidene-1,3,8-triazaspiro[4.5]decan-1-yl}phenoxy)butoxy]propoxy}acetamido)-3,3-dimethylbutanoyl]-4-hydroxy-N-{[4-(4-methyl-1,3-thiazol-5-yl)phenyl]methyl}pyrrolidine-2-carboxamide]
Dmax (VCaP, read-out: VCaP Dmax (%)): 26 to 50%
DC50 (read-out: VCaP DC50; concentration that caused 50% Androgen Receptor degradation, VCaP cells): < 50 nM

Cc1ncsc1-c1ccc(CNC(=O)[C@@H]2C[C@@H](O)CN2C(=O)[C@@H](NC(=O)COC[C@@H](O)[C@H](O)COc2ccc(-c3ccc(N4C(=S)N(c5ccc(C#N)c(C(F)(F)F)c5)C(=O)C4(C)C)cc3)cc2)C(C)(C)C)cc1 [Example 566]
Dmax (VCaP, read-out: VCaP Dmax (%)): 51 to 70%
DC50 [4]: < 50 nM
